According to ChEMBL document CHEMBL4118132, “Novel 5-methyl-2-phenylphenanthridium derivatives as FtsZ-targeting antibacterial agents from structural simplification of natural product sanguinarine” (2018):
≈ marks a conversion by molar mass, not a printed value. Calls of active or inactive are those of the source. The calls are words filed in the database; no cut-off is given here.

Assays:
Streptococcus pyogenes [1] = assay: Antibacterial activity against penicillin-susceptible Streptococcus pyogenes after 24 hrs by broth microdilution method; assay type: functional
Bacillus subtilis = assay: Antibacterial activity against penicillin-susceptible Bacillus subtilis ATCC 9372 after 24 hrs by broth microdilution method; assay type: functional; details: ATCC 9372, 24 h
Bacillus pumilus = assay: Antibacterial activity against penicillin-susceptible Bacillus pumilus ATCC 63202 after 24 hrs by broth microdilution method; assay type: functional; details: ATCC 63202, 24 h
Staphylococcus aureus [2] = assay: Antibacterial activity against penicillin-susceptible Staphylococcus aureus ATCC 25923 after 24 hrs by broth microdilution method; assay type: functional; details: ATCC 25923, 24 h
[3] = molecular target: T1, Cell division protein FtsZ (Bacillus subtilis) (UniProt A5Z1V5); assay: Inhibition of penicillin-susceptible Bacillus subtilis ATCC 9372 N-terminal His6-tagged FtsZ expressed in Escherichia coli BL21 (DE3) cells at 10 ug/ml by fluorescence spectrophotometer-based light scattering assay
T1 sequence (whole entry): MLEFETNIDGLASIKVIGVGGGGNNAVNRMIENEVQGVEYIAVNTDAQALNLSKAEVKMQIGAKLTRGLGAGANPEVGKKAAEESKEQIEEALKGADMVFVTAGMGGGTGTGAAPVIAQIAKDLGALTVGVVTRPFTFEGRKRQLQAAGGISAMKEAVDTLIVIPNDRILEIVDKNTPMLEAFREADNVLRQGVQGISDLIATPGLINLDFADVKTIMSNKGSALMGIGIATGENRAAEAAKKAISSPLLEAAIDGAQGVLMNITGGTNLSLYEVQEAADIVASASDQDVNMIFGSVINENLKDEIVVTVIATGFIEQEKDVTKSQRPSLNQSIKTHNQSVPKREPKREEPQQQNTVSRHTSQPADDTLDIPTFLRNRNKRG

Streptococcus pyogenes [4] = assay: Antibacterial activity against penicillin-resistant Streptococcus pyogenes after 24 hrs by broth microdilution method; assay type: functional
Streptococcus pyogenes [5] = assay: Potency index, ratio of oxacillin sodium MIC to test compound MIC for penicillin-susceptible Streptococcus pyogenes; assay type: functional
Pseudomonas aeruginosa = assay: Antibacterial activity against penicillin-susceptible Pseudomonas aeruginosa ATCC 27853 after 24 hrs by broth microdilution method; assay type: functional; details: ATCC 27853, 24 h
[6] = tested on: Staphylococcus epidermidis; assay: Potency index, ratio of ciprofloxacin MIC to test compound MIC for penicillin-resistant Staphylococcus epidermidis clinical isolate; assay type: functional
Staphylococcus aureus [7] = assay: Potency index, ratio of oxacillin sodium MIC to test compound MIC for methicillin-resistant Staphylococcus aureus ATCC 43300; assay type: functional
[8] = tested on: Staphylococcus epidermidis; assay: Potency index, ratio of oxacillin sodium MIC to test compound MIC for penicillin-resistant Staphylococcus epidermidis clinical isolate; assay type: functional
Staphylococcus aureus [9] = assay: Bactericidal activity against penicillin-susceptible Staphylococcus aureus ATCC 25923 after 24 hrs by flat colony counting method; assay type: functional; details: ATCC 25923, 24 h
Streptococcus pyogenes [10] = assay: Potency index, ratio of ciprofloxacin MIC to test compound MIC for penicillin-resistant Streptococcus pyogenes; assay type: functional
Streptococcus pyogenes [11] = assay: Potency index, ratio of ciprofloxacin MIC to test compound MIC for penicillin-susceptible Streptococcus pyogenes; assay type: functional
Staphylococcus aureus [12] = assay: Potency index, ratio of ciprofloxacin MIC to test compound MIC for penicillin-susceptible Staphylococcus aureus ATCC 25923; assay type: functional
[13] = tested on: Staphylococcus epidermidis; assay: Antibacterial activity against penicillin-resistant Staphylococcus epidermidis clinical isolate after 24 hrs by broth microdilution method; assay type: functional
Staphylococcus aureus [14] = assay: Potency index, ratio of oxacillin sodium MIC to test compound MIC for penicillin-susceptible Staphylococcus aureus ATCC 25923; assay type: functional
Staphylococcus aureus [15] = assay: Antibacterial activity against methicillin-resistant Staphylococcus aureus ATCC 43300 after 24 hrs by broth microdilution method; assay type: functional; details: ATCC 43300, 24 h
Staphylococcus aureus [16] = assay: Potency index, ratio of ciprofloxacin MIC to test compound MIC for methicillin-resistant Staphylococcus aureus ATCC 43300; assay type: functional
Streptococcus pyogenes [17] = assay: Potency index, ratio of oxacillin sodium MIC to test compound MIC for penicillin-resistant Streptococcus pyogenes; assay type: functional
[18] = molecular target: T1, Cell division protein FtsZ (Bacillus subtilis); assay: Inhibition of penicillin-susceptible Bacillus subtilis ATCC 9372 N-terminal His6-tagged FtsZ expressed in Escherichia coli BL21 (DE3) cells by fluorescence spectrophotometer-based light scattering assay
Staphylococcus aureus [19] = assay: Potency index, ratio of ciprofloxacin MIC to test compound MIC for penicillin-resistant Staphylococcus aureus clinical isolate; assay type: functional
Staphylococcus aureus [20] = assay: Potency index, ratio of oxacillin sodium MIC to test compound MIC for penicillin-resistant Staphylococcus aureus clinical isolate; assay type: functional
Escherichia coli = assay: Antibacterial activity against penicillin-susceptible Escherichia coli ATCC 25922 after 24 hrs by broth microdilution method; assay type: functional; details: ATCC 25922, 24 h
Staphylococcus aureus [21] = assay: Antibacterial activity against penicillin-resistant Staphylococcus aureus clinical isolate after 24 hrs by broth microdilution method; assay type: functional
[22] = molecular target: T1, Cell division protein FtsZ (Bacillus subtilis); assay: Inhibition of FtsZ in penicillin-susceptible Bacillus subtilis ATCC 9372 assessed as increase in length of bacteria at 8 ug/ml after 5 hrs by phase-contrast light microscopic method
[23] = molecular target: T2, Cell division protein FtsZ (Staphylococcus aureus) (UniProt P0A031); assay: Inhibition of FtsZ in penicillin-susceptible Staphylococcus aureus ATCC 25923 assessed as increase in length of bacteria at 4 ug/ml after 5 hrs by phase-contrast light microscopic method
T2 sequence (whole entry): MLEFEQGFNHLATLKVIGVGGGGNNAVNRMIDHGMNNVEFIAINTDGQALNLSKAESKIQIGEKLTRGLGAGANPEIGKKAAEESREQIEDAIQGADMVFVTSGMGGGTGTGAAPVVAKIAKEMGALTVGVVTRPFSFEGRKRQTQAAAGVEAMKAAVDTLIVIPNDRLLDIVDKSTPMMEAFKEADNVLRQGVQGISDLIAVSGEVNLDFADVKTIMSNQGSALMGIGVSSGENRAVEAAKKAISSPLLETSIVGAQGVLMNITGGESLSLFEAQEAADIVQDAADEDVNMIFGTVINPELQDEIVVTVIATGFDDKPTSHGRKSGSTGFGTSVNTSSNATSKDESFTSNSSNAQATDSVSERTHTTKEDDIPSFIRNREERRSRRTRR

| SMILES | MIC (Streptococcus pyogenes [1]) [µg/mL] | MIC (Bacillus subtilis) [µg/mL] | MIC (Bacillus pumilus) [µg/mL] | MIC (Staphylococcus aureus [2]) [µg/mL] | MIC (Streptococcus pyogenes [4]) [µg/mL] | MIC (Pseudomonas aeruginosa) [µg/mL] | Ratio (Staphylococcus aureus [7]) | MBC (Staphylococcus aureus [9]) [µg/mL] | Ratio (Staphylococcus aureus [12]) | MIC [13] [µg/mL] | Ratio (Staphylococcus aureus [14]) | MIC (Staphylococcus aureus [15]) [µg/mL] | Ratio (Staphylococcus aureus [16]) | Ratio (Staphylococcus aureus [19]) | Ratio (Staphylococcus aureus [20]) | MIC (Escherichia coli) [µg/mL] | MIC (Staphylococcus aureus [21]) [µg/mL] | further results |
| --- | --- | --- | --- | --- | --- | --- | --- | --- | --- | --- | --- | --- | --- | --- | --- | --- | --- | --- |
| O=C(O)c1cn(C2CC2)c2cc(N3CCNCC3)c(F)cc2c1=O [CIPROFLOXACIN] | 8 (≈ 24.1 µM) | 2 (≈ 6.04 µM) | 8 (≈ 24.1 µM) | 8 (≈ 24.1 µM) | > 64 | – | – | – | – | – | – | – | – | – | – | – | – | inhibition [3]: Active |
| Cc1cc(-c2ccc(-c3ccccc3)cc2)cc2c3ccccc3c[n+](C)c12.[Cl-] | 1 | 0.125 | 0.125 | 0.06 | 2 | > 64 | 16 - 256 | 64 | 133 | 0.125 | 67 | 0.5 | 4 - 164 | 64 | 256 | > 64 | 0.25 | Ratio (Streptococcus pyogenes [5]): 1; Ratio [6]: 512; Ratio [8]: 512; Ratio (Streptococcus pyogenes [10]): 32; Ratio (Streptococcus pyogenes [11]): 8; Ratio (Streptococcus pyogenes [17]): 32; inhibition [18]: Dose-dependent effect |
| C[n+]1cc2c3c(ccc2c2ccc4cc5c(cc4c21)OCO5)OCO3.[Cl-] [SANGUINARIUM CHLORIDE] | 4 | 4 | 4 | 8 | 4 | > 64 | – | – | – | 8 | – | 8 | – | – | – | > 64 | 4 | inhibition [22]: Active; inhibition [23]: Active |
| Cc1cc(-c2cccc(C(F)(F)F)c2)cc2c3ccccc3c[n+](C)c12.[Cl-] | 1 | 0.25 | 0.5 | 0.25 | 2 | > 64 | 16 - 256 | 16 | 8 - 133 | 0.25 | 4 - 67 | 1 | 4 - 164 | 4 - 64 | 16 - 256 | > 64 | 0.5 | – |
